# Test results from ChEMBL document CHEMBL1201862, “PubChem BioAssay data set” (2004).
#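 Tested at 5 concentrations; 48 h exposure; 96-well plates; endpoints linearly interpolated, else capped at highest concentration. GI50: concentration for 50% inhibition of growth.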 Activity calls are given as the source filed them. No stated cut-off is given here; in the data, active = GI50 up to about 1.1 µM and inactive = higher.
# How the values were obtained:
# Assay in all cases: inhibition of tumour cell growth, NCI panel, 48 h
# A549 = test system: A549
# ACHN = test system: ACHN
# BT-549 = test system: BT-549
# COLO 205 = test system: COLO 205
# HCC 2998 = test system: HCC 2998
# HCT-116 = test system: HCT-116
# HOP-92 = test system: HOP-92
# KM12 = test system: KM12
# MCF7 = test system: MCF7
# NCI-H522 = test system: NCI-H522
# OVCAR-3 = test system: OVCAR-3
# RPMI-8226 = test system: RPMI-8226
# SNB-19 = test system: SNB-19
# SNB-75 = test system: SNB-75
# SW-620 = test system: SW-620
# U-251 = test system: U-251
# UACC-257 = test system: UACC-257
# UACC-62 = test system: UACC-62
# K562 = test system: K562
# NCI-H460 = test system: NCI-H460
SMILES,GI50 (A549),GI50 (ACHN),GI50 (BT-549),GI50 (COLO 205),GI50 (HCC 2998),GI50 (HCT-116),GI50 (HOP-92),GI50 (KM12),GI50 (MCF7),GI50 (NCI-H522),GI50 (OVCAR-3),GI50 (RPMI-8226),GI50 (SNB-19),GI50 (SNB-75),GI50 (SW-620),GI50 (U-251),GI50 (UACC-257),GI50 (UACC-62),GI50 (K562),GI50 (NCI-H460)
C=CCO/N=C/c1cc(/N=C(/S)c2ccoc2C)ccc1Cl,21 µM (inactive),5.71 µM (inactive),16.2 µM (inactive),12.4 µM (inactive),10.5 µM (inactive),10.9 µM (inactive),17.3 µM (inactive),7.93 µM (inactive),9.66 µM (inactive),8.22 µM (inactive),11.5 µM (inactive),3.27 µM (inactive),7.28 µM (inactive),15.7 µM (inactive),33.8 µM (inactive),13.9 µM (inactive),14.9 µM (inactive),14.4 µM (inactive),,
O=[N+]([O-])c1ccc(C2NC(=S)NC3c4cc([N+](=O)[O-])ccc4CCCC23)cc1 (stereo unspecified),78.3 µM (inactive),63.4 µM (inactive),38.8 µM (inactive),> 100 µM (inactive),> 100 µM (inactive),> 100 µM (inactive),15.4 µM (inactive),> 100 µM (inactive),41.8 µM (inactive),69.7 µM (inactive),40.7 µM (inactive),58.9 µM (inactive),40.9 µM (inactive),16.6 µM (inactive),> 100 µM (inactive),44.9 µM (inactive),> 100 µM (inactive),31.2 µM (inactive),> 100 µM (inactive),> 100 µM (inactive)
CCCC(=O)Nc1cc(/C=C/C(=O)N2CC(CCl)c3ccc(N)cc32)n(C)c1 (stereo unspecified),0.0294 µM (active),0.0248 µM (active),0.193 µM (active),0.134 µM (active),0.0908 µM (active),0.129 µM (active),0.0964 µM (active),0.257 µM (active),0.122 µM (active),< 0.0113 µM (active),0.268 µM (active),0.177 µM (active),0.406 µM (active),0.388 µM (active),0.29 µM (active),0.324 µM (active),0.195 µM (active),0.092 µM (active),0.116 µM (active),0.0998 µM (active)
O=C(N/N=C\c1cccc2c([N+](=O)[O-])cccc12)Nc1ccccc1,10.3 µM (inactive),14.2 µM (inactive),8.95 µM (inactive),18.5 µM (inactive),15.1 µM (inactive),5.37 µM (inactive),12.3 µM (inactive),14.9 µM (inactive),8.83 µM (inactive),14.6 µM (inactive),14.2 µM (inactive),14.7 µM (inactive),14.6 µM (inactive),22.3 µM (inactive),13.2 µM (inactive),7.08 µM (inactive),19.5 µM (inactive),10.4 µM (inactive),5.85 µM (inactive),14.2 µM (inactive)
CC(C)(C)OC(=O)N[C@H]1CC2(C=C(Cl)C(=O)C(Cl)=C2)OC1=O,38.3 µM (inactive),14.6 µM (inactive),16 µM (inactive),3.97 µM (inactive),16.6 µM (inactive),14.8 µM (inactive),16.9 µM (inactive),17.7 µM (inactive),6.79 µM (inactive),3.07 µM (inactive),14.8 µM (inactive),2.65 µM (inactive),> 100 µM (inactive),20.5 µM (inactive),4.33 µM (inactive),20.7 µM (inactive),13.8 µM (inactive),16.5 µM (inactive),2.46 µM (inactive),24.3 µM (inactive)
CCCCC(=O)Oc1ccc2c(C)cc(=O)oc2c1,> 100 µM (inactive),> 100 µM (inactive),> 100 µM (inactive),> 100 µM (inactive),88.9 µM (inactive),> 100 µM (inactive),26.2 µM (inactive),> 100 µM (inactive),> 100 µM (inactive),> 100 µM (inactive),> 100 µM (inactive),> 100 µM (inactive),> 100 µM (inactive),> 100 µM (inactive),> 100 µM (inactive),> 100 µM (inactive),> 100 µM (inactive),> 100 µM (inactive),> 100 µM (inactive),> 100 µM (inactive)
Cc1cc(O)ccc1C1(c2ccc(F)cc2)OC(=O)c2ccccc21 (stereo unspecified),5.24 µM (inactive),4.17 µM (inactive),0.208 µM (active),1.82 µM (inactive),4.33 µM (inactive),3.21 µM (inactive),1.99 µM (inactive),,1.34 µM (inactive),0.646 µM (active),0.236 µM (active),21.7 µM (inactive),4.15 µM (inactive),1.93 µM (inactive),12.9 µM (inactive),15.5 µM (inactive),12.6 µM (inactive),3.39 µM (inactive),6.87 µM (inactive),15.6 µM (inactive)
COC(=O)[C@@H](NC(=O)N(CCC#N)CCCN(C(=O)N[C@H](Cc1ccccc1)C(=O)OC)c1ccccc1)C(C)C,> 100 µM (inactive),85.5 µM (inactive),> 100 µM (inactive),> 100 µM (inactive),47.3 µM (inactive),> 100 µM (inactive),29.9 µM (inactive),> 100 µM (inactive),> 100 µM (inactive),40.4 µM (inactive),57.8 µM (inactive),25.1 µM (inactive),> 100 µM (inactive),> 100 µM (inactive),> 100 µM (inactive),> 100 µM (inactive),29.2 µM (inactive),33.3 µM (inactive),,
Cc1cccc2c(=O)c3c(O)cc(O)cc3n(C)c12,> 100 µM (inactive),> 100 µM (inactive),> 100 µM (inactive),> 100 µM (inactive),> 100 µM (inactive),> 100 µM (inactive),91.4 µM (inactive),> 100 µM (inactive),> 100 µM (inactive),> 100 µM (inactive),> 100 µM (inactive),> 100 µM (inactive),> 100 µM (inactive),85.7 µM (inactive),> 100 µM (inactive),> 100 µM (inactive),> 100 µM (inactive),> 100 µM (inactive),63.5 µM (inactive),> 100 µM (inactive)
COc1cccc(C2c3cc4c(cc3OC(C)(N3CCCC3)C2C)OCO4)c1O (stereo unspecified),6.7 µM (inactive),11.3 µM (inactive),3.26 µM (inactive),3.13 µM (inactive),8.09 µM (inactive),4.25 µM (inactive),11.5 µM (inactive),3.14 µM (inactive),3.47 µM (inactive),2.05 µM (inactive),2.05 µM (inactive),5.32 µM (inactive),4.06 µM (inactive),2.3 µM (inactive),4.01 µM (inactive),4.35 µM (inactive),5.05 µM (inactive),4.6 µM (inactive),3.45 µM (inactive),5.5 µM (inactive)
Cc1c(C)c(C)c(-n2c(=O)n(C)c(=O)n2-n2c(=O)n(C)c(=O)n2-c2c(C)c(C)c(C)c(C)c2C)c(C)c1C,> 100 µM (inactive),,> 100 µM (inactive),> 100 µM (inactive),> 100 µM (inactive),> 100 µM (inactive),> 100 µM (inactive),> 100 µM (inactive),> 100 µM (inactive),44.2 µM (inactive),> 100 µM (inactive),> 100 µM (inactive),> 100 µM (inactive),> 100 µM (inactive),> 100 µM (inactive),> 100 µM (inactive),> 100 µM (inactive),> 100 µM (inactive),> 100 µM (inactive),> 100 µM (inactive)
CCN(CC)CCn1c2cc3c(cc2c(=O)c2cccnc21)OCO3,5.11 µM (inactive),3.52 µM (inactive),> 10 µM (inactive),2.85 µM (inactive),9.04 µM (inactive),4.79 µM (inactive),6.95 µM (inactive),5.94 µM (inactive),3.89 µM (inactive),6.71 µM (inactive),5.14 µM (inactive),3.93 µM (inactive),8.07 µM (inactive),3.83 µM (inactive),4.26 µM (inactive),6.65 µM (inactive),6.1 µM (inactive),8.75 µM (inactive),,3.06 µM (inactive)
Cc1cc(S(=O)(=O)Nc2n[nH]c(-c3ccc(Cl)cc3)n2)c(SSc2cc(Cl)c(C)cc2S(=O)(=O)Nc2n[nH]c(-c3ccc(Cl)cc3)n2)cc1Cl,41.5 µM (inactive),32.1 µM (inactive),40.6 µM (inactive),25.9 µM (inactive),19.6 µM (inactive),28.5 µM (inactive),25.1 µM (inactive),29.2 µM (inactive),24.6 µM (inactive),32.2 µM (inactive),28.3 µM (inactive),37.2 µM (inactive),,27.9 µM (inactive),24.8 µM (inactive),25.2 µM (inactive),61.7 µM (inactive),21.4 µM (inactive),27 µM (inactive),22.4 µM (inactive)
C/C(=N\NC(=S)NCCCCNC(=S)N/N=C(\C)c1ccccn1)c1ccccc1,1.66 µM (inactive),0.601 µM (active),0.897 µM (active),0.832 µM (active),1.66 µM (inactive),0.331 µM (active),1.55 µM (inactive),1.77 µM (inactive),0.416 µM (active),1.15 µM (inactive),0.424 µM (active),1.35 µM (inactive),> 24.8 µM (inactive),0.993 µM (active),,0.962 µM (active),1.78 µM (inactive),1.12 µM (active),2.25 µM (inactive),0.481 µM (active)
